{"source": "patent US11149004B2", "about": "“Crystalline form of EB-1020, processes for preparation and use thereof” (priority 2017, dated 2021)", "key": {"[1]": {"experiment": "Storage stability of prior art Form C", "type": "physicochemical", "details": "room temperature, a month; found by the inventors", "excerpt": "The prior art WO2016205762A disclosed Form A, Form B and Form C of EB-1020."}, "[2]": {"details": "40° C./75% RH, two weeks; per WO2016205762A paragraph [00232]; cited from earlier work"}, "[3]": {"experiment": "Kinetic solubility in FaSSIF and FeSSIF", "type": "physicochemical", "details": "for Solubility (mg/mL) eSSIF / Solubility (mg/mL) FaSSIF: hydrochloride", "excerpt": "High Performance Liquid Chromatography (HPLC) data for solubility test in the present disclosure were collected from an Agilent 1260 with Diode Array Detector (DAD). The method parameters are as follows:\nSimulated gastrointestinal fluids such as FaSSIF (Fasted state simulated intestinal fluids) and FeSSIF (Fed state simulated intestinal fluids) are biorelevant media. Solubility in such media is close to in vivo solubility, because these media can reflect the effects of intestinal environment on drug release better.\nA certain amount of Form CS1, prior art Form A and Form B were suspended in FaSSIF and FeSSIF to get saturated solutions. After equilibration for 4 h, concentrations (mg/mL) of the saturated solutions were measured by HPLC."}, "[4]": {"experiment": "Grinding stability of Form CS1, prior art Form A and Form B", "type": "physicochemical", "details": "ground manually for 5 minutes in a mortar, XRPD, hydrochloride", "protocol": "A certain amount of Form CS1, prior art Form A and Form B were ground manually for 5 minutes in a mortar. The XRPD patterns of Form CS1 before and after grinding are as depicted in FIG. 8 (top: before grinding; bottom: after grinding). The XRPD patterns of prior art Form A before and after grinding are as depicted in FIG. 9 (top: before grinding; bottom: after grinding). The XRPD patterns of prior art Form B before and after grinding are as depicted in FIG. 10 (top: before grinding; bottom: after grinding)."}, "[5]": {"experiment": "Physical stability of Form CS1 under different pressures (tableting)", "type": "physicochemical", "details": "for Crystalline form after tableting: XRPD", "excerpt": "A certain amount of Form CS1 were compressed into pellets under different pressures with suitable tableting die. Crystalline forms before and after tableting were checked by XRPD."}, "[6]": {"experiment": "Adhesiveness of Form CS1 (material sticking to the punch)", "type": "physicochemical", "protocol": "30 mg of Form CS1 were weighed and then added into the dies of φ8 mm round tooling, compressed at 10 KN and held for 30s. The punch was weighed and the amount of material sticking to the punch was calculated. The compression was repeated twice and the cumulative amount, maximum amount and average amount of material sticking to the punch during the compression were recorded."}, "[7]": {"experiment": "Morphology (polarizing microscope, PLM)", "type": "physicochemical", "excerpt": "Morphology of Form CS1 of the present disclosure was checked by a polarizing microscope (PLM), and the PLM image is shown in FIG. 11. […] Form CS1 has better flowability and is more suitable for processing and preparing drug product."}, "[8]": {"experiment": "Compressibility of Form CS1 (tensile strength)", "type": "physicochemical", "protocol": "A manual tablet press was used for compression. A certain amount of Form CS1 were added into the dies of round tooling and compressed at certain pressure manually, the tablet was stored in a desiccator for 24 h until complete elastic recovery. Hardness (H) was tested with an Intelligent Tablet Hardness Tester. Diameter (D) and thickness (L) were tested with a caliper. Tensile strength of the powder was calculated with the following formula: T=2H/πDL. Under a certain force, the greater the tensile strength, the better the compressibility."}, "[9]": {"details": "according to WO2016205762A paragraph [00179]; cited from earlier work"}, "[10]": {"details": "30 mg, φ8 mm round tooling, 10 KN, held 30s"}, "[11]": {"details": "φ6 mm round tooling, 80 mg, 10 kN, after 24 h elastic recovery"}, "[12]": {"details": "FaSSIF, equilibration 4 h, HPLC"}}, "note": "“Also recorded” adds a separate entry of the source. Read-outs that look alike come from different tables or passages of the source. Marks after values point to notes of the source that are not given here.", "data": [{"compound": "Cl.c1ccc2cc([C@]34CNC[C@H]3C4)ccc2c1", "note": "[Form C, (1R,5S)-1-(naphthalen-2-yl)-3-azabicyclo[3.1.0]hexane hydrochloride]", "values": [{"measurement": "Crystalline form after storage", "setting": "[1]", "value": "converted to Form A"}, {"measurement": "Crystalline form after storage", "setting": "[2]", "value": "converted to a mixture of Form A and Form B"}]}, {"compound": "Cl.c1ccc2cc([C@]34CNC[C@H]3C4)ccc2c1", "note": "[Form CS1, (1R,5S)-1-(naphthalen-2-yl)-3-azabicyclo[3.1.0]hexane hydrochloride]", "values": [{"measurement": "solubility at 4 h", "setting": "[3]; FaSSIF (fasted state simulated intestinal fluid), fassif, thermodynamic from solid, FaSSIF, equilibration 4 h, HPLC, read-out: Solubility (mg/mL) FaSSIF", "value": 75.3, "unit": "mg/mL"}, {"measurement": "Solubility compared with prior art Form A and Form B", "setting": "[3]; FaSSIF and FeSSIF", "value": "higher"}, {"measurement": "Solubility relative to prior art Form A and Form B", "setting": "[3]; FeSSIF", "value": "almost twice"}, {"measurement": "Solubility (mg/mL) eSSIF", "setting": "[3]; equilibration 4 h, HPLC", "value": 74.8, "unit": "mg/mL"}, {"measurement": "Crystalline form after grinding", "setting": "[4]", "value": "remains unchanged"}, {"measurement": "Crystallinity after grinding", "setting": "[4]", "value": "remained substantially unchanged; also recorded: little change in crystallinity"}, {"measurement": "Crystalline form after tableting", "setting": "[5]; Pressure 3 kN", "value": "Form CS1"}, {"measurement": "Crystalline form after tableting", "setting": "[5]; Pressure 7 kN", "value": "Form CS1"}, {"measurement": "Crystalline form after tableting", "setting": "[5]; Pressure 14 kN", "value": "Form CS1"}, {"measurement": "Crystalline form after compression into tablets under different pressures", "setting": "[5]; different pressures", "value": "remains unchanged"}, {"measurement": "Adhesiveness", "setting": "[6]", "value": "low adhesiveness"}, {"measurement": "Average amount (mg) of material sticking to the punch", "setting": "[6]; [10]", "value": "0* mg"}, {"measurement": "Cumulative amount (mg) of material sticking to the punch", "setting": "[6]; [10]", "value": "0* mg"}, {"measurement": "Maximum amount (mg) of material sticking to the punch", "setting": "[6]; [10]", "value": 0.07, "unit": "mg"}, {"measurement": "Morphology", "setting": "[7]", "value": "spherical or short rod-like crystal"}, {"measurement": "Compressibility", "setting": "[8]", "value": "good compressibility"}, {"measurement": "Tensile strength (MPa)", "setting": "[8]; T=2H/πDL, φ6 mm round tooling, 80 mg, 10 kN", "value": 1.04, "unit": "MPa"}, {"measurement": "Diameter (mm)", "setting": "[8]; [11]", "value": 6.95, "unit": "mm"}, {"measurement": "Thickness (mm)", "setting": "[8]; [11]", "value": 2.40, "unit": "mm"}]}, {"compound": "Cl.c1ccc2cc([C@]34CNC[C@H]3C4)ccc2c1", "note": "[prior art Form A, (1R,5S)-1-(naphthalen-2-yl)-3-azabicyclo[3.1.0]hexane hydrochloride, reference compound]", "values": [{"measurement": "Solubility (mg/mL) FaSSIF", "setting": "[3]; [12]", "value": 46.9, "unit": "mg/mL"}, {"measurement": "Solubility (mg/mL) eSSIF", "setting": "[3]; equilibration 4 h, HPLC", "value": 36.0, "unit": "mg/mL"}, {"measurement": "Crystallinity after grinding", "setting": "[4]", "value": "decreased obviously"}, {"measurement": "Crystallinity after grinding", "setting": "[4]; listed as Form A", "value": "obvious decrease of crystallinity"}, {"measurement": "Morphology", "setting": "[9]", "value": "needle-like crystals"}]}, {"compound": "Cl.c1ccc2cc([C@]34CNC[C@H]3C4)ccc2c1", "note": "[prior art Form B, (1R,5S)-1-(naphthalen-2-yl)-3-azabicyclo[3.1.0]hexane hydrochloride, reference compound]", "values": [{"measurement": "Solubility (mg/mL) FaSSIF", "setting": "[3]; [12]", "value": 52.0, "unit": "mg/mL"}, {"measurement": "Solubility (mg/mL) eSSIF", "setting": "[3]; equilibration 4 h, HPLC", "value": 29.2, "unit": "mg/mL"}, {"measurement": "Crystalline form after grinding", "setting": "[4]", "value": "changed"}, {"measurement": "Crystalline form after grinding", "setting": "[4]; listed as Form B", "value": "partially converts to Form A"}, {"measurement": "Morphology", "setting": "[9]", "value": "needle-like crystals"}]}]}
